Experimental data taken from patent US11607419B2, “Inhibitors of RAC1 and uses thereof for inducing bronchodilatation” (INSTITUT NATIONAL DE LA SANTE ET DE LA RECHERCHE MEDICALE …, priority 2017, dated 2023).

How the values were obtained:
RAC1 [1] = molecular target: T1, RAC1 (Homo sapiens, UniProt P63000); settings: compared with NSC23766
RAC1 [2] = molecular target: T1, RAC1
[3] = tested on: Rac1-dependent ruffle formation in NIH3T3 cells; test: Rac activator-induced membrane ruffling (actin staining) in fibroblasts; format: cell-based; settings: fibroblasts, dose-dependent inhibition
Protocol: (§1) Cell culture, transfection and actin staining. NIH3T3 cells grew up in DMEM (Gibco; Invitrogen) containing 10% foetal bovine serum, 100 units/mL penicillin and 100 μg/mL streptomycin at 37° C. and 5% CO2. The culture medium was changed every 72 hours.
After treatments, fibroblasts were fixed with 4% paraformaldehyde in PBS, permeabilized in PBS 0.5% Triton X-100, and incubated with 130 μg/mL of FITC-conjugated phalloidin (Sigma) to visualize F-actin. After staining, images were captured by a fluorescence microscope (Nikon). The actin cytoskeleton organization was analyzed to observe Rac1-dependent ruffle formation.

[4] = molecular target: T2, Rac-GTP (Rac1 activity) in NIH3T3 cells (Mus musculus, UniProt P63001); test: Rac activation: active Rac immunoprecipitation and immunoblot of Rac-GTP in fibroblasts stimulated by a Rac activator; format: cell-based; settings: pre-incubated 1 h
T2 construct: endogenous in cells; host or cells: NIH3T3
Protocol: as §1
Analysis of Rac1 activity. In NIH3T3 cells lysates, Rac1 activity was evaluated by active Rac immunoprecipitation using anti-Rac-GTP antibody (26903, NewEast Biosciences). The precipitated active Rac was subjected to SDS-PAGE and detected by immunoblot with anti-Rac1 antibody (BD biosciences).

fibroblast adhesion = test: Cell adhesion assay using impedance technology; format: cell-based; settings: fibroblasts, 10 μm
Protocol: Cell adhesion assay using impedance technology. Cells (10000/well) were seeded in a 96 well plate microtiter xCELLigence assay plate (E-Plate) (ACEA Biosciences Inc.) and placed on the Real-time xCELLigence Cell Analyzer (Roche Applied Science) platform at 37° C. to measure the “cell index” every 5 min for a period of 6 hours. The cell index unit is defined as (Rn−Rb)/15. Rn is the cell electrode impedance of the well when it contains cells. Rb is the background impedance of the well with the media alone.

Compound	melting point [°C]	further results
COc1ccc(OC)c(NS(=O)(=O)c2ccc(NC(=O)C#C[Si](C)(C)C)cc2)c1	84	–
COc1ccc(NS(=O)(=O)c2ccc(NC(=O)CCSc3ccc(C)cc3)cc2)c(OC)c1 [(1), N-(4-(N-(2,4-dimethoxyphenyl)sulfamoyl)phenyl)-3-(p-tolylthio)propanamide]	–	Relative activity (NSC23766) (RAC1 [1]): >; IC50 (RAC1 [2]): 30 nM
COc1ccc(OC)c(NS(=O)(=O)c2ccc(NC(=O)CCCc3ccc(C)cc3)cc2)c1 [(3), N-(4-(N-(2,5-dimethoxyphenyl)sulfamoyl)phenyl)-4-(p-tolyl) butanamide]	126	–
COc1ccc(OC)c(NS(=O)(=O)c2ccc(NC(=O)CSc3ccc(C)cc3)cc2)c1 [(4)]	126	–
C=CC(=O)Nc1ccc(S(=O)(=O)Nc2cc(OC)ccc2OC)cc1 [(5), N-(4-(N-(2,5-dimethoxyphenyl)sulfamoyl)phenyl)acrylamide]	126	Relative activity (NSC23766) (RAC1 [1]): >; IC50 (RAC1 [2]): 0.1 nM
COc1ccc(OC)c(NS(=O)(=O)c2ccc(NC(=O)CCOc3ccc(C)cc3)cc2)c1 [(6), N-(4-(N-(2,5-dimethoxyphenyl)sulfamoyl)phenyl)-3-(p-tolyloxy)propanamide]	145	Relative activity (NSC23766) (RAC1 [1]): >; IC50 (RAC1 [2]): 1 nM
COc1ccc(OC)c(NC(=O)c2ccc(NC(=O)CCSc3ccc(C)cc3)cc2)c1 [(7), N-(2,5-dimethoxyphenyl)-4-(3-(p-tolylthio)propanamido) benzamide]	153	–
COc1ccc(OC)c(NS(=O)(=O)c2ccc(NC(=O)CCCSc3ccc(C)cc3)cc2)c1 [(8)]	153	–
COc1ccc(OC)c(NS(=O)(=O)c2ccc([N+](=O)[O-])cc2)c1 [(9), N-(2,5-dimethoxyphenyl)-4-nitrobenzenesulfonamide]	165	–
COc1ccc(OC)c(NS(=O)(=O)c2ccc(N)cc2)c1 [(10), 4-amino-N-(2,5-dimethoxyphenyl)benzenesulfonamide]	126	–
CCC(=O)Nc1ccc(S(=O)(=O)Nc2cc(OC)ccc2OC)cc1 [(11), N-(4-(N-(2,5-dimethoxyphenyl)sulfamoyl)phenyl) propionamide]	170	–
C=CC(=O)Nc1ccc(S(=O)(=O)N(C(=O)C=C)c2cc(OC)ccc2OC)cc1 [(16), N-acryloyl-N′-(4-(N-(2,5-dimethoxyphenyl)sulfamoyl)phenyl) acrylamide]	220.8	–
COc1ccccc1NS(=O)(=O)c1ccc([N+](=O)[O-])cc1 [(17), N-(2-methoxyphenyl)-4-nitrobenzenesulfonamide]	156.5	Relative activity (NSC23766) (RAC1 [1]): >; IC50 (RAC1 [2]): 1 nM
COc1ccccc1NS(=O)(=O)c1ccc(N)cc1 [(18), 4-amino-N-(2-methoxyphenyl)-benzenesulfonamide]	–	Relative activity (NSC23766) (RAC1 [1]): >; IC50 (RAC1 [2]): 1 nM
COc1ccccc1NS(=O)(=O)c1ccc(NC(=O)CCSc2ccc(C)cc2)cc1 [(19), N-(4-(N-(2-methoxyphenyl)sulfamoyl)phenyl)-3-(p-tolylthio) propanamide]	143.5	Relative activity (NSC23766) (RAC1 [1]): >; IC50 (RAC1 [2]): 1 nM
COc1ccccc1NS(=O)(=O)c1ccc(NC(=O)CSc2ccc(C)cc2)cc1 [(20), N-(4-(N-(2-methoxyphenyl)sulfamoyl)phenyl)-2-(p-tolylthio) acetamide]	169.3	Relative activity (NSC23766) (RAC1 [1]): >; IC50 (RAC1 [2]): 1 nM
COc1cccc(NS(=O)(=O)c2ccc([N+](=O)[O-])cc2)c1 [(21), N-(3-methoxyphenyl)-4-nitrobenzenesulfonamide]	119.4	–
COc1cccc(NS(=O)(=O)c2ccc(N)cc2)c1 [(22)]	–	Relative activity (NSC23766) (RAC1 [1]): >; IC50 (RAC1 [2]): 1 nM
COc1cccc(NS(=O)(=O)c2ccc(NC(=O)CCSc3ccc(C)cc3)cc2)c1 [(23), N-(4-(N-(3-methoxyphenyl)sulfamoyl)phenyl)-3-(p-tolylthio) propanamide]	156.8	–
COc1ccc(OC)c(NS(=O)(=O)c2ccc(NC(=O)CC[S+]([O-])c3ccc(C)cc3)cc2)c1 (stereo not drawn) [(24), N-(4-(N-(2,5-dimethoxyphenyl)sulfamoyl)phenyl)-3-(p-tolylsulfinyl)propanamide]	148.1	–
COc1ccc(OC)c(NS(=O)(=O)c2ccc(NC(=O)CCS(=O)(=O)c3ccc(C)cc3)cc2)c1 [(25), N-(4-(N-(2,5-dimethoxyphenyl)sulfamoyl)phenyl)-3-tosyl-propanamide]	180.3	–
COc1ccc(OC)c(N(C)S(=O)(=O)c2ccc(NC(=O)CCSc3ccc(C)cc3)cc2)c1 [(26), N-(4-(N-(2,5-dimethoxyphenyl)-N-methylsulfamoyl)phenyl)-3-(p-tolylthio)propanamide]	48	–
C#CC(=O)Nc1ccc(S(=O)(=O)Nc2cc(OC)ccc2OC)cc1 [(27), N-(4-(N-(2,5-dimethoxyphenyl)sulfamoyl)phenyl) propiolamide]	200	–
Cc1ccc(SCCC(=O)Nc2ccc(S(=O)(=O)Nc3ccccc3F)cc2)cc1 [(30), N-(4-(N-(2-fluorophenyl)sulfamoyl)phenyl)-3-(p-tolylthio) propanamide]	162	–
COc1ccc(OC)c(NS(=O)(=O)c2ccc(NC(=O)CCl)cc2)c1 [(31), 2-chloro-N-(4-(N-(2,5-dimethoxyphenyl)sulfamoyl)phenyl) acetamide]	190	–
COc1ccc(NS(=O)(=O)c2ccc([N+](=O)[O-])cc2)c(OC)c1 [Example 1, N-(2,4-dimethoxyphenyl)-4-nitrobenzenesulfonamide]	161	–
O=[N+]([O-])c1ccc(S(=O)(=O)Nc2ccccc2F)cc1 [Example 5]	166	–
COc1ccc(NS(=O)(=O)c2ccc(N)cc2)c(OC)c1 [Example 6, 4-amino-N-(2,4-dimethoxyphenyl)benzenesulfonamide]	115	–
Nc1ccc(S(=O)(=O)Nc2ccccc2F)cc1 [Example 10]	190	–
CCN(CC)CCCC(C)Nc1nc(C)cc(Nc2ccc3nc(C)cc(N)c3c2)n1 (stereo not drawn) [NSC23766, reference compound]	–	IC50 [3]: 2600 nM; Rac activation (Rac-GTP level) by a Rac activator [4]: prevented; adhesion rate of the cells (fibroblast adhesion): slow down
